Source: US20040156869A1, “2-substituted quinazolin-4-ylamine analogues” (Neurogen Corporation, priority 2002, published 2004)

biological target: human capsaicin receptor (VR1) (Homo sapiens, UniProt Q8NER1); experiment: Capsaicin receptor binding assay ([3H]RTX competition, VR1-transfected HEK293 membranes)
Sequence (Q8NER1 whole entry): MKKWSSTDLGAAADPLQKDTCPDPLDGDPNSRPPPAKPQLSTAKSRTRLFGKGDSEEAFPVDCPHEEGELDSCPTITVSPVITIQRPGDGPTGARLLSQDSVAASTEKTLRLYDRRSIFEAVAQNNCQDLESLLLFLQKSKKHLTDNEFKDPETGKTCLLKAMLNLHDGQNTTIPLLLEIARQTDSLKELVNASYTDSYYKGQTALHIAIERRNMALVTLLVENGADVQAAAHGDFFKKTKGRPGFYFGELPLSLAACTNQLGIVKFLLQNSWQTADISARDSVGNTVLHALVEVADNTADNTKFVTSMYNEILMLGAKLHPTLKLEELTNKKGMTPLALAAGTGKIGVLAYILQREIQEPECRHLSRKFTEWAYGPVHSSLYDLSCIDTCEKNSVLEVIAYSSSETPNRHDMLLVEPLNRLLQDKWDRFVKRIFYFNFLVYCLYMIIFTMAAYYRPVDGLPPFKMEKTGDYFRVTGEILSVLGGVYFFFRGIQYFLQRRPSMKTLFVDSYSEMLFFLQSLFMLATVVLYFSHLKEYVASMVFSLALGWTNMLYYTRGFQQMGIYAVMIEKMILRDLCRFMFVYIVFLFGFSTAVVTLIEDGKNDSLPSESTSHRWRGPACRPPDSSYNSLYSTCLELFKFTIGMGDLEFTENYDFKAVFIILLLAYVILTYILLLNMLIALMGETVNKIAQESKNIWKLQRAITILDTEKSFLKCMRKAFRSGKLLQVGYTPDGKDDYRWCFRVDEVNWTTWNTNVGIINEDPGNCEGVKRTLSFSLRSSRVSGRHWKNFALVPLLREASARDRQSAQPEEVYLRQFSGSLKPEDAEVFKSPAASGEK

Ki, < 1000 nM:
Cc1cc(Nc2nc(COCC(C)C)nc3nc(-c4ncccc4Cl)ccc23)ccc1F [Compound 269, [7-(3-Chloro-pyridin-2-yl)-2-isobutoxymethyl-pyrido[2,3-d]pyrimidin-4-yl]-(4-fluoro-3-methyl-phenyl)-amine]
CC(C)COCc1nc(Nc2cccc(C(F)(F)F)c2)c2ccc(-c3ncccc3C(F)(F)F)nc2n1 [Compound 270, [2-Isobutoxymethyl-7-(3-trifluoromethyl-pyridin-2-yl)-pyrido[2,3-d]pyrimidin-4-yl]-(3-trifluoromethyl-phenyl)-amine]
CC(C)COCc1nc(Nc2cccc(Cl)c2)c2ccc(-c3ncccc3C(F)(F)F)nc2n1 [Compound 271, (3-Chloro-phenyl)-[2-isobutoxymethyl-7-(3-trifluoromethyl-pyridin-2-yl)-pyrido[2,3-d]pyrimidin-4-yl]-amine]
CC(C)COCc1nc(Nc2ccc(C#N)cc2)c2ccc(-c3ncccc3C(F)(F)F)nc2n1 [Compound 272, 4-[2-Isobutoxymethyl-7-(3-trifluoromethyl-pyridin-2-yl)-pyrido[2,3-d]pyrimidin-4-ylamino]-benzonitrile]
CC(C)COCc1nc(Nc2ccc(Cl)c(F)c2)c2ccc(-c3ncccc3C(F)(F)F)nc2n1 [Compound 273, (4-Chloro-3-fluoro-phenyl)-[2-isobutoxymethyl-7-(3-trifluoromethyl-pyridin-2-yl)-pyrido[2,3-d]pyrimidin-4-yl]-amine]
Cc1cc(Nc2nc(COCC(C)C)nc3nc(-c4ncccc4C(F)(F)F)ccc23)ccc1Cl [Compound 274, (4-Chloro-3-methyl-phenyl)-[2-isobutoxymethyl-7-(3-trifluoromethyl-pyridin-2-yl)-pyrido[2,3-d]pyrimidin-4-yl]-amine]
CC(C)COCc1nc(Nc2ccc(F)c(Cl)c2)c2ccc(-c3ncccc3C(F)(F)F)nc2n1 [Compound 275, (3-Chloro-4-fluoro-phenyl)-[2-isobutoxymethyl-7-(3-trifluoromethyl-pyridin-2-yl)-pyrido[2,3-d]pyrimidin-4-yl]-amine]
Cc1ccc(Nc2nc(COCC(C)C)nc3nc(-c4ncccc4C(F)(F)F)ccc23)cc1C(F)(F)F [Compound 276, [2-Isobutoxymethyl-7-(3-trifluoromethyl-pyridin-2-yl)-pyrido[2,3-d]pyrimidin-4-yl]-(4-methyl-3-trifluoromethyl-phenyl)-amine]
CC(C)COCc1nc(Nc2ccc(CO)cc2)c2ccc(-c3ncccc3Cl)nc2n1 [Compound 277, {4-[7-(3-Chloro-pyridin-2-yl)-2-isobutoxymethyl-pyrido[2,3-d]pyrimidin-4-ylamino]-phenyl}-methanol]
CCCCOc1ccc(Nc2nc(COCC(C)C)nc3nc(-c4ncccc4Cl)ccc23)cc1 [Compound 278, (4-Butoxy-phenyl)-[7-(3-chloro-pyridin-2-yl)-2-isobutoxymethyl-pyrido[2,3-d]pyrimidin-4-yl]-amine]
CC(C)OCc1nc(Nc2ccc(S(N)(=O)=O)cc2)c2ccc(-c3ncccc3Cl)nc2n1 [Compound 279, 4-{7-(3-Chloro-pyridin-2-yl)-2-isopropoxymethyl-pyrido[2,3-d]pyrimidin-4-ylamino]-benzenesulfonamide]
CCCC(=O)c1ccc(Nc2nc(COCC(C)C)nc3nc(-c4ncccc4Cl)ccc23)cc1 [Compound 280, 1-{4-[7-(3-Chloro-pyridin-2-yl)-2-isobutoxymethyl-pyrido[2,3-d]pyrimidin-4-ylamino]-phenyl}-butan-1-one]
CCOC(=O)Cc1ccc(Nc2nc(COCC(C)C)nc3nc(-c4ncccc4Cl)ccc23)cc1 [Compound 283, {4-[7-(3-Chloro-pyridin-2-yl)-2-isobutoxymethyl-pyrido[2,3-d]pyrimidin-4-ylamino]-phenyl}-acetic acid ethyl ester]
CC(C)COCc1nc(Nc2ccc(CC(=O)O)cc2)c2ccc(-c3ncccc3Cl)nc2n1 [Compound 284, {4-[7-(3-Chloro-pyridin-2-yl)-2-isobutoxymethyl-pyrido[2,3-d]pyrimidin-4-ylamino]-phenyl}-acetic acid]
COc1cc(Nc2nc(COCC(C)C)nc3nc(-c4ncccc4Cl)ccc23)ccc1F [Compound 285, [7-(3-Chloro-pyridin-2-yl)-2-isobutoxymethyl-pyrido[2,3-d]pyrimidin-4-yl]-(4-fluoro-3-methoxy-phenyl)-amine]
OCc1cc2nc(-c3ncccc3C(F)(F)F)ccc2c(Nc2ccc(C(F)(F)F)cc2)n1 [Compound 286, [5-(4-Trifluoromethyl-phenylamino)-2-(3-trifluoromethyl-pyridin-2-yl)-[1,6]naphthyridin-7-yl]-methanol]
COCc1nc(Nc2ccc(Cl)cc2)c2ccc(-c3ncccc3C(F)(F)F)nc2n1 [Compound 287, (4-Chloro-phenyl)-[2-methoxymethyl-7-(3-trifluoromethyl-pyridin-2-yl)-pyrido[2,3-d]pyrimidin-4-yl]-amine]
COCc1nc(Nc2ccc(C#N)cc2)c2ccc(-c3ncccc3C(F)(F)F)nc2n1 [Compound 288, 4-[2-Methoxymethyl-7-(3-trifluoromethyl-pyridin-2-yl)-pyrido[2,3-d]pyrimidin-4-ylamino]-benzonitrile]
COCc1nc(Nc2ccc(C(C)=O)cc2)c2ccc(-c3ncccc3C(F)(F)F)nc2n1 [Compound 289, 1-{4-[2-Methoxymethyl-7-(3-trifluoromethyl-pyridin-2-yl)-pyrido[2,3-d]pyrimidin-4-ylamino]-phenyl}-ethanone]
COCc1nc(Nc2ccc(C(C)(C)C#N)cc2)c2ccc(-c3ncccc3C(F)(F)F)nc2n1 [Compound 290, 2-{4-[2-Methoxymethyl-7-(3-trifluoromethyl-pyridin-2-yl)-pyrido[2,3-d]pyrimidin-4-ylamino]-phenyl}-2-methyl-propionitrile]
COCc1nc(Nc2ccc(F)c(F)c2)c2ccc(-c3ncccc3C(F)(F)F)nc2n1 [Compound 291, (3,4-Difluoro-phenyl)-[2-methoxymethyl-7-(3-trifluoromethyl-pyridin-2-yl)-pyrido[2,3-d]pyrimidin-4-yl]-amine]
COCc1nc(Nc2ccc(Cl)c(F)c2)c2ccc(-c3ncccc3C(F)(F)F)nc2n1 [Compound 292, (4-Chloro-3-fluoro-phenyl)-[2-methoxymethyl-7-(3-trifluoromethyl-pyridin-2-yl)-pyrido[2,3-d]pyrimidin-4-yl]-amine]
COCc1nc(Nc2ccc(Cl)c(C)c2)c2ccc(-c3ncccc3C(F)(F)F)nc2n1 [Compound 293, (4-Chloro-3-methyl-phenyl)-[2-methoxymethyl-7-(3-trifluoromethyl-pyridin-2-yl)-pyrido[2,3-d]pyrimidin-4-yl]-amine]
COCc1nc(Nc2ccc(Cl)c(C(F)(F)F)c2)c2ccc(-c3ncccc3C(F)(F)F)nc2n1 [Compound 294]
COCc1cc2nc(-c3ncccc3C(F)(F)F)ccc2c(Nc2ccc(C(F)(F)F)cc2)n1 [Compound 295, [7-Methoxymethyl-2-(3-trifluoromethyl-pyridin-2-yl)-[1,6]naphthyridin-5-yl]-(4-trifluoromethyl-phenyl)-amine]
CC(C)COCc1cc2nc(-c3ncccc3C(F)(F)F)ccc2c(Nc2ccc(C(F)(F)F)cc2)n1 [Compound 296, [7-Isobutoxymethyl-2-(3-trifluoromethyl-pyridin-2-yl)-[1,6]naphthyridin-5-yl]-(4-trifluoromethyl-phenyl)-amine]
COCc1cc(Nc2ccc(C(F)(F)F)cc2)c2ccc(-c3ncccc3C(F)(F)F)nc2n1 [Compound 297, [2-Methoxymethyl-7-(3-trifluoromethyl-pyridin-2-yl)-[1,8]naphthyridin-4-yl]-(4-trifluoromethyl-phenyl)-amine]
COCc1cc(Nc2ccc(C(C)(C)C)cc2)c2ccc(-c3ncccc3C(F)(F)F)nc2n1 [Compound 298, (4-tert-Butyl-phenyl)-[2-methoxymethyl-7-(3-trifluoromethyl-pyridin-2-yl)-[1,8]naphthyridin-4-yl]-amine]
COCc1nc2nc(-c3ncccc3C(F)(F)F)ccc2c(Nc2ccc(C(F)(F)F)cc2)c1C(=O)OC [Compound 299, 2-Methoxymethyl-4-(4-trifluoromethyl-phenylamino)-7-(3-trifluoromethyl-pyridin-2-yl)-[1,8]naphthyridine-3-carboxylic acid methyl ester]
OCc1cc(Nc2ccc(C(F)(F)F)cc2)c2ccc(-c3ncccc3C(F)(F)F)nc2n1 [Compound 300, [4-(4-Trifluoromethyl-phenylamino)-7-(3-trifluoromethyl-pyridin-2-yl)-[1,8]naphthyridin-2-yl]-methanol]
CC(C)COCc1cc(Nc2ccc(C(F)(F)F)cc2)c2ccc(-c3ncccc3C(F)(F)F)nc2n1 [Compound 301, [2-Isobutoxymethyl-7-(3-trifluoromethyl-pyridin-2-yl)-[1,8]naphthyridin-4-yl]-(4-trifluoromethyl-phenyl)-amine]
COCc1cc(Nc2ccc(Cl)cc2)c2ccc(-c3ncccc3C(F)(F)F)nc2n1 [Compound 302, (4-Chloro-phenyl)-[2-methoxymethyl-7-(3-trifluoromethyl-pyridin-2-yl)-[1,8]naphthyridin-4-yl]-amine]
COCc1cc(Nc2ccc(F)cc2)c2ccc(-c3ncccc3C(F)(F)F)nc2n1 [Compound 303, (4-Fluoro-phenyl)-[2-methoxymethyl-7-(3-trifluoromethyl-pyridin-2-yl)-[1,8]naphthyridin-4-yl]-amine]
